Measurements as given in paper PMC6384781, “Design, Synthesis, Docking Studies and Monoamine Oxidase Inhibition of a Small Library of 1-acetyl- and 1-thiocarbamoyl-3,5-diphenyl-4,5-dihydro-(1H)-pyrazoles” (Molecules, 2019).

Experiments:
hMAO-B = molecular target: T1, hMAO-B (Homo sapiens, UniProt P27338); experiment: hMAO-B inhibition, Amplex Red fluorometric assay with kynuramine substrate; assay type: biochemical; settings: recombinant hMAO-B, kynuramine 50 µM, mean ± SD of triplicate, max tested 100 µM
T1 construct: purchased Sigma-Aldrich; host or cells: insect cells (microsomes)
T1 sequence (P27338 1-520): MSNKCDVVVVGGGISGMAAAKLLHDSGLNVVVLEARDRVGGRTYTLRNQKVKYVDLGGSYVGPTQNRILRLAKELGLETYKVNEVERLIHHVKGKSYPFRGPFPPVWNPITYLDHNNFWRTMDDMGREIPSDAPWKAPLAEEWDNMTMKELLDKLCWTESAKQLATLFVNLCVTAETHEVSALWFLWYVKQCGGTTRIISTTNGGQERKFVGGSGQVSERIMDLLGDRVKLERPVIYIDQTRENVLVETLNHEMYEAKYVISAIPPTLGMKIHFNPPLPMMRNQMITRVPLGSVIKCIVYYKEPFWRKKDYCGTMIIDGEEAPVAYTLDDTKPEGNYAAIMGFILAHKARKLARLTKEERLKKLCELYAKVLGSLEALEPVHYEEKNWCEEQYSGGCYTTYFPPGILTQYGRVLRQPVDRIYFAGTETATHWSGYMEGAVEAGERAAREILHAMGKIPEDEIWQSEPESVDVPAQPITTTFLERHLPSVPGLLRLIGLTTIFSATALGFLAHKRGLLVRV
Description: (§1) The synthesized compounds P1–P18 were evaluated as hMAO inhibitors using the recombinant hMAOs as enzyme sources and kynuramine as substrate. A fluorometric method based on the Amplex® Red reagent (λex = 560 nm; λem = 590 nm) was used to measure hMAO activity. In this horseradish peroxidase-linked assay, Amplex® Red reacts with hydrogen peroxide that is produced by the MAO catalytic cycle to yield a fluorescent product, resorufin [28]. By thus recording the MAO-catalyzed formation of hydrogen peroxide in the presence of different concentrations of a test inhibitor, sigmoidal plots of enzyme activity versus the logarithm of inhibitor concentration were constructed from which IC50 values were estimated (GraphPad Prism 5). All IC50 values were measured in triplicate and are expressed as the mean ± standard deviation (SD). The inhibitory activities of compounds P1–P18 are summarized in Table 1 along with selectivity index (SI) values which are the ratio of IC50(hMAO-A)/IC50(hMAO-B). SI < 1 indicates selectivity for MAO-A, whereas SI > 1 indicates selectivity for the MAO-B isoform.
(§2) Microsomes from insect cells expressing recombinant hMAO-A or hMAO-B (5 mg protein/mL) served as enzyme sources, and were pre-aliquoted and stored at −70 °C. All enzymatic reactions were carried out to a final volume of 200 µL in black 96-well microtiter plates (Corning). Potassium phosphate buffer (100 mM, pH 7.4, made isotonic with KCl) served as reaction solvent. The reactions contained kynuramine (50 µM), various concentrations of the test inhibitor (0.003–100 μM), horseradish peroxidase (1 unit/mL) and Amplex® Red (200 µM). Stock solutions of the test inhibitors were prepared in DMSO and added to the reactions to yield a final concentration of 4% (v/v) DMSO. The reactions were initiated with the addition of hMAO-A (0.0075 mg protein/mL) or hMAO-B (0.015 mg protein/mL), and incubated at 37 °C for 20 min in a convection oven. At endpoint, the reactions were terminated with the addition of 10 μL pargyline (20 mM) and 10 μL (R)-deprenyl (5 mM) for hMAO-A and hMAO-B, respectively. The concentrations of resorufin in the reactions were determined by fluorescence spectrophotometry (λex = 560 nm, λem = 590 nm). Resorufin was quantitated with a linear calibration curve, which was constructed from standard solutions containing hydrogen peroxide (0.05–1.6 µM). Each standard was prepared to a final volume of 200 μL in potassium phosphate buffer and also contained horseradish peroxidase (1 unit/mL), Amplex® Red (200 µM), 4% DMSO as co-solvent, 10 μL pargyline (20 mM) for hMAO-A and 10 μL (R)-deprenyl (5 mM) for hMAO-B. The IC50 values were determined by constructing sigmoidal curves of MAO catalytic activity versus the logarithm of inhibitor concentration. For this purpose, the one site competition model incorporated into the Prism 5 software package (GraphPad, San Diego, CA, USA) was used. All experiments were carried out in triplicate and the IC50 values are expressed as mean ± standard deviation (SD).

hMAO-A = molecular target: T2, hMAO-A (Homo sapiens, UniProt P21397); experiment: hMAO-A inhibition, Amplex Red fluorometric assay with kynuramine substrate; assay type: biochemical; settings: recombinant hMAO-A, kynuramine 50 µM, mean ± SD of triplicate, max tested 100 µM
T2 construct: purchased Sigma-Aldrich; host or cells: insect cells (microsomes)
T2 sequence (P21397 1-527): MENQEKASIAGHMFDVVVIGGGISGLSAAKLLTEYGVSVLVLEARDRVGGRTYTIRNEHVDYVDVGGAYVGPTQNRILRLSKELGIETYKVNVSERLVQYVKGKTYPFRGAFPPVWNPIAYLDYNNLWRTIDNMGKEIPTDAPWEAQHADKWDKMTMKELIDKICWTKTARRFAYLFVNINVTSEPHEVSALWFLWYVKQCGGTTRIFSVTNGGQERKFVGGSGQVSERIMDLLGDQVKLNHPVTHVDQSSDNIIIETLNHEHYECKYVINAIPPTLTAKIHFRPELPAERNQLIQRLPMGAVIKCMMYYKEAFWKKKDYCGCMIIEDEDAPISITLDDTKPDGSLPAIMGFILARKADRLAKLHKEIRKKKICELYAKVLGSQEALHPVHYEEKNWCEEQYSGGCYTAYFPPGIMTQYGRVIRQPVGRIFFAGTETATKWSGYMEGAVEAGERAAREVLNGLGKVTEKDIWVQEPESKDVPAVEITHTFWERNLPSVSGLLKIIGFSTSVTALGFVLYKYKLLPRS
Description: as §1, §2

melting point: 78 to 80 °C
IC50 (hMAO-B): > 100 µM
IC50 hMAO-B (hMAO-B): devoid of inhibition activity
IC50 (hMAO-A): > 100 µM
IC50 hMAO-A (hMAO-A): devoid of inhibition activity
SMILES: CC(=O)N1N=C(c2ccc(OCC=C(C)C)cc2)CC1c1cccc2ccccc12 (centres unmarked) [Compound P18, 1-(3-(4-((3-methylbut-2-en-1-yl)oxy)phenyl)-5-(naphthalen-1-yl)-4,5-dihydro-1H-pyrazol-1-yl)ethan-1-one]
